In PubChem BioAssay (NCI):
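Each compound was tested at five concentrations against cells in 96-well plates for 48 hours. At the GI50, growth is halved. TGI: total growth inhibition.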

Columns and labels:
Test in all cases: NCI anticancer screen, dose series, 48 h
A498 renal = test system: A498 renal
A549 NSCLC = test system: A549 NSCLC
COLO 205 colon = test system: COLO 205 colon
HCT-116 colon = test system: HCT-116 colon
MALME-3M melanoma = test system: MALME-3M melanoma
MOLT-4 leukemia = test system: MOLT-4 leukemia
NCI-H460 lung = test system: NCI-H460 lung
OVCAR-4 ovarian = test system: OVCAR-4 ovarian
U251 CNS = test system: U251 CNS
PC-3 prostate = test system: PC-3 prostate

SMILES | TGI (A498 renal) | TGI (A549 NSCLC) | TGI (COLO 205 colon) | TGI (HCT-116 colon) | TGI (MALME-3M melanoma) | TGI (MOLT-4 leukemia) | TGI (NCI-H460 lung) | TGI (OVCAR-4 ovarian) | TGI (U251 CNS) | GI50 (A498 renal) | GI50 (A549 NSCLC) | GI50 (COLO 205 colon) | GI50 (HCT-116 colon) | GI50 (MALME-3M melanoma) | GI50 (MOLT-4 leukemia) | GI50 (NCI-H460 lung) | GI50 (OVCAR-4 ovarian) | GI50 (U251 CNS) | GI50 (PC-3 prostate) | TGI (PC-3 prostate)
O=C1C2C3CC4C5C3C1C5C1(SCCS1)C42 (centres undefined) | > 100 µM | > 100 µM | > 100 µM | > 100 µM | > 100 µM | > 100 µM | > 100 µM | > 100 µM | > 100 µM |  |  |  |  |  |  |  |  |  |  | 
CCN(CC)CC(=O)NC1c2ccccc2Oc2ccccc21 |  | > 100 µM | > 100 µM | > 100 µM |  | > 100 µM | > 100 µM | > 100 µM | > 100 µM |  |  |  |  |  |  |  |  |  |  | 
C[C@@H]1C(=O)CC2C(C)(C)CCC[C@]2(C)[C@@]12CC[C@]1(C=COC1)O2 (some centres undefined) |  | > 100 µM | > 100 µM | > 100 µM | 79.5 µM | 42.9 µM | > 100 µM | > 100 µM |  |  |  |  |  |  |  |  |  |  |  | 
O=C(CCc1n[nH]c(=S)o1)Nc1cc(Cl)ccc1Cl | > 100 µM | > 100 µM | > 100 µM | 30.8 µM | > 100 µM | > 100 µM | > 100 µM | > 100 µM | > 100 µM |  |  |  |  |  |  |  |  |  |  | 
O=C1C=C(Nc2ccccc2)c2ccccc2C1=O | 5.26 µM | 4.06 µM | 3.61 µM | 5.49 µM | 3.07 µM | 9.47 µM | 6.47 µM | 3.53 µM | 4.6 µM | 1.96 µM | 1.84 µM | 1.96 µM | 2.15 µM | 1.64 µM | 2.87 µM | 2.44 µM | 1.68 µM | 1.8 µM |  | 
Cn1ncnc1[C@@H]1c2n[nH]c(=O)c3cc(F)cc(c23)N[C@H]1c1ccc(F)cc1 | > 100 µM | > 100 µM | > 100 µM | > 100 µM | > 100 µM | > 100 µM | > 100 µM | > 100 µM |  | > 100 µM | > 100 µM | > 100 µM | > 100 µM | > 100 µM | > 100 µM | 78.4 µM | > 100 µM |  | > 100 µM | > 100 µM
O=S(=O)(NCCCNc1cc(-c2cn(-c3ccccc3)nc2-c2cccc(O)c2)ccn1)c1ccc(C(F)(F)F)cc1 | 2.64 µM | 7.45 µM | 3.54 µM | 2.95 µM |  | 5.36 µM | 3.86 µM | 5.78 µM | 3.26 µM | 1.1 µM | 2.14 µM | 1.78 µM | 1.44 µM |  | 1.83 µM | 1.86 µM | 1.87 µM | 1.28 µM | 1.93 µM | 4.57 µM
O=c1nc2n(-c3cccc(Cl)c3)c3ccc([N+](=O)[O-])cc3cc-2c(=O)[nH]1 | > 25 µM | > 25 µM | > 25 µM | 5.68 µM |  | > 25 µM | > 25 µM | > 25 µM | > 25 µM | 16.7 µM | 12.7 µM | 7.94 µM | 1.53 µM |  | 2.02 µM | 9.77 µM | > 25 µM | 2.63 µM | 6.01 µM | 15.3 µM
